Results: patent US11234979B2, “Heteroaryl compounds as muscarinic M1 receptor positive allosteric modulators” (SUVEN LIFE SCIENCES LIMITED, priority 2017, dated 2022)

Legend:
Male Wistar rats = assay: Object recognition task model; format: in vivo; conditions: rat, p.o.; for Exploration time mean ± S.E.M, Familiar object / Exploration time mean ± S.E.M, Novel object: choice trial T2, 24 hours after T1
Description: Object Recognition Task Model
The cognition enhancing properties of compounds of this invention were estimated by using this model.
Male Wistar rats (8-10 weeks old) were used as experimental animals. Four animals were housed in each cage. Animals were kept on 20% food deprivation from a day prior to experimentation. Water was provided ad libitum throughout the experiment. Animals were maintained on a 12 hours light/dark cycle in temperature and humidity controlled room. The experiment was carried out in a circular or square arena made up of acrylic. Rats were habituated to individual arenas for up to 1 hour in the absence of any objects on day 1.
One group of 12 rats received vehicle and another set of animals received compound of the formula (I), before the familiar (T1) and choice (T2) trials. During the familiarization phase, (T1), the rats were placed individually in the arena for 3 minutes, in which two identical objects (a1 and a2) were positioned 10 cm from the wall. 24 hours after T1, trial for long-term memory test was performed. The same rats were placed in the same arena as they were placed in T1 trial. During the choice phase (T2) rats were allowed to explore the arena for 3 minutes in presence of a copy of familiar object (a3) and one novel object (b). During the T1 and T2 trial, explorations of each object (defined as sniffing, licking, chewing or having moving vibrissae whilst directing the nose towards the object at a distance of less than 1 cm) were recorded using stopwatch.
T1 is the total time spent exploring the familiar objects (a1+a2).
T2 is the total time spent exploring the familiar object and novel object (a3+b).
The object recognition test was performed as described by Ennaceur, A., Delacour, J., 1988, A new one-trial test for neurobiological studies of memory in rats˜Behavioural data, Behav. Brain Res., 31, 47-59.

[1] = Rodent pharmacokinetic study; format: in vivo, Male Wistar rats; conditions: male, Wistar, rat, plasma; for bioavailability: oral 3 mg/kg vs i.v. 1 mg/kg
Description: Rodent Pharmacokinetic Study
Male Wistar rats (260±50 grams) were used as experimental animals. Animals were housed individually in polypropylene cage. Two days prior to study, male Wistar rats were anesthetized with isoflurane for surgical placement of jugular vein catheter. Rats were randomly divided for oral (3 mg/kg) and intravenous (i.v) (1 mg/kg) dosing (n=3/group) and fasted overnight before oral dosing (p.o.). However, rats allocated to intravenous (i.v.) dosing food and water was provided ad libitum.
At pre-determined point, blood was collected through jugular vein and replenished with an equivalent volume of normal saline. Collected blood was transferred into a labeled eppendorf tube containing 10 μL of heparin as an anticoagulant. Typically blood samples were collected at following time points: 0.08, 0.25, 0.5, 1, 2, 4, 6, 8, and 24 hours post dose. Blood was centrifuged at 4000 rpm for 10 minutes. Plasma was separated and stored frozen at −80° C. until analysis. The concentrations of the test compounds were quantified in plasma by qualified LC-MS/MS method using suitable extraction technique. The test compounds were quantified in the calibration range around 1-1000 ng/mL in plasma. Study samples were analyzed using calibration samples in the batch and quality control samples spread across the batch.
Pharmacokinetic parameters Cmax, AUCt, T1/2, clearance and bioavailability (F) were calculated by non-compartmental model using standard non-compartmental model by using Phoenix WinNonlin 6.0.2 or 6.0.3 version Software package.

[2] = target: T1, recombinant human Muscarinic M1 receptor (Homo sapiens, UniProt P11229); assay: Allosteric potency EC50 for Muscarinic M1 receptor, CHO pCRE-Luc reporter assay with EC20 of acetylcholine; format: cell-based; conditions: CHO cells, in presence of EC20 of acetylcholine, 4 hours
T1 construct: expressed in transfected cells
T1 sequence (P11229 1-460): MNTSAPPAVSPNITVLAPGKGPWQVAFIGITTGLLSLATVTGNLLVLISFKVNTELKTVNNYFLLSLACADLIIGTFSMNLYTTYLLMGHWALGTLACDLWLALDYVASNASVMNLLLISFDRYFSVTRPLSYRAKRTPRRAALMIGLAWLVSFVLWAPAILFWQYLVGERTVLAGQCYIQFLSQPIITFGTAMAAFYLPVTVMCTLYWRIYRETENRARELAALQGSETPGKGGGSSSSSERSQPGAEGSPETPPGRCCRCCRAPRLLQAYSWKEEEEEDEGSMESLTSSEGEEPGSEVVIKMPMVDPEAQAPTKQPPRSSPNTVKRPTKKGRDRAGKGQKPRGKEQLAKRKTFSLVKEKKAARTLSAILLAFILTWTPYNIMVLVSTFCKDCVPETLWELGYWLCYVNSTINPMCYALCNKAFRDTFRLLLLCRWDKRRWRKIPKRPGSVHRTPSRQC
Description: Determination of Allosteric Potency EC50 Values for Muscarinic M1 Receptor:
A stable CHO cell line expressing recombinant human Muscarinic M1 receptor and pCRE-Luc reporter system was used for cell-based assay. The assay offers a non-radioactive based approach to determine binding of a compound to GPCRs. In this specific assay, the level of intracellular cyclic AMP which is modulated by activation or inhibition of the receptor is measured. The recombinant cells harbor luciferase reporter gene under the control of cAMP response element.
The above cells were grown in 96 well clear bottom white plates in Hams F12 medium containing 10% fetal bovine serum (FBS). Prior to the addition of compounds or standard agonist, cells were serum starved overnight. Increasing concentrations of test compounds were added along with EC20 of acetylcholine in OptiMEM medium to the cells. The incubation was continued at 37° C. in CO2 incubator for 4 hours. Medium was removed and cells were washed with phosphate buffered saline. The cells were lysed and luciferase activity was measured in a Luminometer. Luminescence counts in each concentrations of test item were normalized to the acetylcholine induced maximum response and the data was analyzed using Graphpad software. EC50 values of the compounds were defined as the concentration required in stimulating the luciferase activity by 50% in presence of EC20 of acetylcholine.

[3] = Rodent brain penetration study; format: in vivo, Male Wistar rats; conditions: male, Wistar, brain and plasma, po; rat, 3 mg/kg, p.o. @ 1.0 hr, brain-plasma ratio; read-out: Single dose Rat Brain Penetration (Cb/Cp)
Description: Rodent Brain Penetration Study
Male Wistar rats (260±40 grams) were used as experimental animals. Three animals were housed in each cage. Animals were given water and food ad libitum throughout the experiment and maintained on a 12 hours light/dark cycle.
Brain penetration was determined in discrete manner in rats. One day prior to dosing day, male Wistar rats were acclimatized and randomly grouped according to their weight. At each time point (0.5, 1 and 2 hours) n=3 animals were used.
The test compounds were suitably preformulated and administered orally at (free base equivalent) 3 mg/kg. Blood samples were removed via cardiac puncture by using isoflurane anesthesia. The animals were sacrificed to collect brain tissue. Plasma was separated and brain samples were homogenized and stored frozen at −20° C. until analysis. The concentrations of the test compounds in plasma and brain were determined using LC-MS/MS method.
The test compounds were quantified in plasma and brain homogenate by qualified LC-MS/MS method using suitable extraction technique. The test compounds were quantified in the calibration range of 1-500 ng/mL in plasma and brain homogenate. Study samples were analyzed using calibration samples in the batch and quality control samples spread across the batch.

SMILES | Inference (Male Wistar rats; 0.3 mg/kg) | Exploration time mean ± S.E.M, Familiar object (Male Wistar rats; 0.3 mg/kg) [s] | Exploration time mean ± S.E.M, Novel object (Male Wistar rats; 0.3 mg/kg) [s] | AUC(0-t) ([1]; iv, i.v. 1 mg/kg) [ng·h/mL] | half-life ([1]; iv, i.v. 1 mg/kg) [h] | clearance ([1]; iv, i.v. 1 mg/kg) [mL/min/kg] | bioavailability [1] [%] | AUC(0-t) ([1]; oral 3 mg/kg) [ng·h/mL] | Cmax ([1]; oral 3 mg/kg) [ng/mL] | half-life ([1]; oral 3 mg/kg) [h] | EC50 [2] [µM] | Kp at 1 h [3] | Inference (Male Wistar rats; 1 mg/kg) | Exploration time mean ± S.E.M, Familiar object (Male Wistar rats; 1 mg/kg) [s] | Exploration time mean ± S.E.M, Novel object (Male Wistar rats; 1 mg/kg) [s]
Cn1cc(-c2ccc(Cc3cc(C(=O)N[C@H]4CCCC[C@@H]4O)n4ncccc34)c(F)c2)cn1 [Example 34, N-(cis-1S,2S-2-Hydroxycyclohexyl)-5-[2-fluoro-4-(1-methyl-1H-pyrazol-4-yl)-benzyl]-pyrrolo[1,2-b]pyridazine-7-carboxamide] | Active | 10.35 ± 1.75 | 15.63 ± 3.23 | 3230 ± 625 | 3.7 ± 0.3 | 5 ± 0.7 | 66 ± 3 | 6390 ± 312 | 793 ± 86 | 4.4 ± 2.3 | 0.989 | 0.13 ± 0.02 | – | – | –
COc1ccc(Cc2cc(C(=O)N[C@H]3CCCC[C@@H]3O)n3ncccc23)cc1 [Example 20, N-(cis-1S,2S-2-Hydroxycyclohexyl)-5-(4-methoxybenzyl)-pyrrolo[1,2-b]pyridazine-7-carboxamide] | – | – | – | 1380 ± 390 | 2.7 ± 0.8 | 12.2 ± 3.1 | 39 ± 3 | 1610 ± 139 | 402 ± 98 | 3.4 ± 0.7 | 1.34 | 1.52 ± 0.15 | Active | 10.31 ± 1.07 | 14.92 ± 1.11
